22 molecules from US11512089B2, “Substituted [1,2,4]triazolo[3,4-a]phthalazines as modulators of GABAA receptor activity” (SHANGHAI SIMR BIOTECHNOLOGY CO., LTD, priority 2018, dated 2022) can be followed below.

Data set [1] is described as follows: Kinetic solubility in 50 mM phosphate buffer pH 7.4. The class given is physicochemical. The conditions noted are these: aqueous buffer, kinetic from dmso stock, 50 mM phosphate buffer pH 7.4, 2% DMSO, room temperature. The procedure:
(§1) 50 mM phosphate buffer pH=7.4: 0.39 g of NaH2PO4.2H2O, and 1.4025 g of Na2HPO4 were weighted and placed in an erlenmeyer flask, 240 mL of water was added. The solid was dissolved and mixed thoroughly, the pH value was adjusted to 7.4 with 10M NaOH solution, and the resulting solution was transferred to a 250 mL volumetric flask, followed by adding water to the mark.
(§2) Waters e2695 HPLC high performance liquid chromatography, Mettler XSE105 analytical balance.
(§3) Firstly, a 10 mM stock solution with DMSO as the solvent was prepared, and was diluted with a diluent (ACN: PB buffer 50:50) into 1 μM-200 μM as standard solution.
Kinetic solubility. 30 μL of the stock solution was placed in a 2 mL centrifuge tube, 1470 μL of 50 mM phosphate buffer (pH 7.4) (containing DMSO at a final concentration of 2%) was added. The mixture was shaken at room temperature (1000 rpm/min) for 24 hours, and then filtered. The filtrate was tested by high performance liquid chromatography (UV).

The target in the next data set is T1, α5-GABAA receptor (Homo sapiens, UniProt P18507+P31644).
T1 construct: expressed in transfected cells; host or cells: HEK-293 (monoclonal, stably transfected)
T1 sequence (P31644 32-462): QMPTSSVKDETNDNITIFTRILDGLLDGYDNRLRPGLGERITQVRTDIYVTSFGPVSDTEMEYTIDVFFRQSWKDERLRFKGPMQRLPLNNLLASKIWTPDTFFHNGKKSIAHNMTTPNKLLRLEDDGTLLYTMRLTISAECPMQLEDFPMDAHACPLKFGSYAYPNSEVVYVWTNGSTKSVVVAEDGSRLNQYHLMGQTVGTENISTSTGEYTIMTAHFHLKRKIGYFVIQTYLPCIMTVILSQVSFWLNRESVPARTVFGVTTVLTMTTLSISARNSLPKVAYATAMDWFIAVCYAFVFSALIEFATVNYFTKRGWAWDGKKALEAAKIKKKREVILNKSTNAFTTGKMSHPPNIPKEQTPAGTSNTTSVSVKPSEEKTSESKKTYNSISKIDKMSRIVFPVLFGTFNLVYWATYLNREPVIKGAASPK
T1 sequence (P28472 26-473 partner): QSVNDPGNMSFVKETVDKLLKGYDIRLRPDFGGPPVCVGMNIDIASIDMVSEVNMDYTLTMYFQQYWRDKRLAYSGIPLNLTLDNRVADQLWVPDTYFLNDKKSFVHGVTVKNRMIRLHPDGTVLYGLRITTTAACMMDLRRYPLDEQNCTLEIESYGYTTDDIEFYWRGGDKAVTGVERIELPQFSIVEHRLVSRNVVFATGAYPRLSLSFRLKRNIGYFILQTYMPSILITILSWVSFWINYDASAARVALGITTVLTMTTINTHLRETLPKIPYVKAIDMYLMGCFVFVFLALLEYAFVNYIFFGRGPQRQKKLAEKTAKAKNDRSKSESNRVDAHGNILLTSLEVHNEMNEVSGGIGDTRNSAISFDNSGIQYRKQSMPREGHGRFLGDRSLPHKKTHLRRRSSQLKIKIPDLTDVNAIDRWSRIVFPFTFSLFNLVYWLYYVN
T1 sequence (P18507 40-467 isoform P18507-1 limits assumed): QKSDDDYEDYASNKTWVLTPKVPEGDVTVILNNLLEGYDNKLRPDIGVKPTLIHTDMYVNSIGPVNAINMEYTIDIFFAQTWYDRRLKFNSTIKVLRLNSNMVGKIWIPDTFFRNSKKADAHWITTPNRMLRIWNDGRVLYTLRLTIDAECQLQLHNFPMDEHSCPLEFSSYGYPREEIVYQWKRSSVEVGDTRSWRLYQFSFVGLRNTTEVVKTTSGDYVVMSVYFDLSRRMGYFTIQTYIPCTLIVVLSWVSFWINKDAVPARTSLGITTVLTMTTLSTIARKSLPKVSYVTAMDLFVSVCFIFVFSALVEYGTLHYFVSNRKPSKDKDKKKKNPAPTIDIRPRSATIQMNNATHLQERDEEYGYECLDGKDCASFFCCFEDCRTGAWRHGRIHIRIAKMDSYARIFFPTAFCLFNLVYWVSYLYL
The data set is described as follows: Whole cell patch clamp, inverse agonism efficacy on GABA-induced current in HEK-293 cells expressing α5-GABAA receptor. It is filed as cell-based. Particulars: HEK293; compound 100 nM, GABA 0.05 μM; ratio to reference compound Example 7 in CN106854207A in the same batch. The procedure:
The inventors used electrophysiological methods to determine the inverse agonist efficacy of the substances to be tested. The detailed procedures are as follows:
(1) Different subunits of GABAA receptors were expressed in human embryonic kidney cells 293 (HEK293). The cells were cultured in a culture medium and used as a cell model for screening potential analgesics. The α, β and γ subunits are necessary to form complete functional GABAA receptors. In this example, the inventors have established the following cell model: (a) α5 subunit (protein sequence is GenBank accession number: NM_000810.3), (33 subunit (protein sequence is GenBank accession number: NM_000814.5) and γ2 subunit (protein sequence is GenBank accession number: NM_000816.3) were expressed in HEK-293 cell line at the same time, followed by screening the monoclonal cell line. This cell line contained α5-GABAA receptor and had complete GABAA receptor function.
(2) The monoclonal stably transfected HEK-293 cells expressing α5-GABAA receptor were cultured in 10 cm culture dishes. The cells were passaged after reaching 80-90% confluence. During passaging, the culture medium was removed and discarded, 3 mL of DPBS (phosphate buffered saline, Gibco™) was added to the dishes, the dishes were shaken slightly, and DPBS was removed and discarded. 1 mL of trypsin (TrypLE Express, Gibco™) was added and the cells were digested at 37° C. for 1-2 minutes. Then 3 mL of complete medium (DMEM+10% FBS (Gibco™)) was added and the cells at the bottom of the culture dishes were dispersed. The cell suspension were transferred to a 15 mL centrifugal tube (Corning™) and then centrifuged at 200 g for 3 minutes. The supernatant was discarded, 4 mL of complete medium was added, and the cells were resuspended by gently blowing. The cell suspension was diluted by 1:5 or 1:10 for subculturing. The cell suspension was diluted by 1:12 for electrophysiology experiment, and added to a 24 well plate (Corning™) with a glass slide pre-treated with poly-D-lysine placed thereon; the experiment was initiated after the cells were adhered to the slide. The cells for electrophysiology experiment were maintained in culture for no more than 48 hours before use.
(3) Compound concentration: for screening, all compounds were diluted to a final concentration of 100 nM and the concentration of GABA was 0.05 μM. The compounds were at the concentration of 0.3 nM, 3 nM, 10 nM, 30 nM, 100 nM and 300 nM in dose-inverse agonism efficacy (%) experiment. The whole cell patch clamp technique was used in electrophysiology experiments, which can refer to the literature (I. Lecker, Y. Yin, D. S. Wang and B. A. Orser, (2013) Potentiation of GABAA receptor activity by volatile anaesthetics is reduced by α5-GABAA receptor-preferring inverse agonists, British Journal of Anaesthesia 110 (S1): i73-i81). The extracellular solution (ECS) contained: 150 mM NaCl, 5 mM KCl, 2.5 mM CaCl2, 1 mM MgCl2, 10 mM HEPES and 10 mM glucose (pH 7.4); Patch electrodes were filled with an intracellular solution containing: 140 mM CsCl, 11 mM EGTA, 10 mM HEPES, 2 mM CaCl2, 1 mM MgCl2, 4 mM MgATP, 2 mM TEA (pH 7.3). The currents were recorded by an EPC-10 amplifier and the PatchMaster software (HEKA). Patch electrodes with a resistance of 4-6 MΩ were pulled from borosilicate glass. The ALA-VC3-8PP™ system was used for extracellular administration. Separate cells that grew independently was selected for recording. During recording, the membrane voltage was clamped at −60 mV. During experiment, the cells were firstly perfused with ECS for 20 seconds. When the baseline reached to a stable state, the cells were then perfused with GABA solution. Then the current induced by GABA could be detected. After about 20 to 40 seconds, the current was stable. ECS was switched to compounds solution and the effects of the compounds were detected. At last, the perfusion solution was switched to ECS. […]
(In general: Patch clamp records ionic current or voltage across a cell membrane.)

Data set [2] is described as follows: Thermodynamic solubility in 50 mM phosphate buffer pH 7.4. It is filed as physicochemical. The conditions noted are these: aqueous buffer, thermodynamic from solid, 50 mM phosphate buffer pH 7.4, room temperature. As for the experimental part:
as §1, §2, §3
Thermodynamic solubility. About 1 mg of the sample was weighted, 1.5 mL of 50 mM phosphate buffer (pH 7.4) was added thereto, and the mixture was shaken at room temperature for 24 hours to ensure that the solution reached a state of saturation. The solution was then filtered, and the filtrate was tested with high-performance liquid chromatography (UV).

≈ marks a conversion by molar mass, not a printed value.

For orientation: kinetic solubility means the concentration staying in solution when a stock, usually in DMSO, is diluted into the medium. As a reminder, the Emax is the greatest response seen or fitted, relative to the assay's reference. In turn, `COCc1cc(-c2nnc3c4ccccc4c(OCc4ccc(C(=O)N[C@@H](C)COC)cn4)nn23)no1` [Compound 05, (S)—N-(2-methoxy-1-methyl-ethyl)-6-[3-(5-methoxymethyl-isoxazol-3-yl)-[1,2,4]triazolo[3,4-a]phthalazin-6-yloxymethyl]-nicotinamide] displayed a kinetic solubility at 24 h in data set [1] of 25.6 µg/mL (≈ 50.7 µM). Also, the Emax at 0.1 µM at α5-GABAA receptor stood at 90%.

The molecule `COCc1cc(-c2nnc3c4ccccc4c(OCc4ccc(C(=O)NC[C@@H]5CCCO5)cn4)nn23)no1` [Compound 06, (S)-6-[3-(5-methoxymethyl-isoxazol-3-yl)-[1,2,4]triazolo[3,4-a]phthalazin-6-yloxymethyl]-N-(tetrahydro-furan-2-ylmethyl)-nicotinamide] showed a kinetic solubility at 24 h in data set [1] of 13.6 µg/mL (≈ 26.4 µM). Besides, the Emax at 0.1 µM at α5-GABAA receptor is 74.9%. Regarding `COCCNC(=O)c1ccc(COc2nn3c(-c4cc(COC)on4)nnc3c3ccccc23)nc1` [Compound 07, N-(2-methoxy-ethyl)-6-[3-(5-methoxymethyl-isoxazol-3-yl)-[1,2,4]triazolo[3,4-a]phthalazin-6-yloxymethyl]-nicotinamide], the kinetic solubility at 24 h in data set [1] is 23.2 µg/mL (≈ 47.4 µM). Besides, the Emax at 0.1 µM at α5-GABAA receptor was 108%.

On to `COCc1cc(-c2nnc3c4ccccc4c(OCc4ccc(C(=O)NC(C)COC)cn4)nn23)no1` (stereo not shown) [Compound 10, N-(2-methoxy-1-methyl-ethyl)-6-[3-(5-methoxymethyl-isoxazol-3-yl)-[1,2,4]triazolo[3,4-a]phthalazin-6-yloxymethyl]-nicotinamide], for which the solubility (kinetic) at 24 h in data set [1] was determined as 18.9 µg/mL (≈ 37.6 µM). Also, the Emax at 0.1 µM at α5-GABAA receptor amounted to 103%. By solubility (thermodynamic) is commonly meant solubility found after equilibrating the solid with the medium. As for `COCc1cc(-c2nnc3c4ccccc4c(OCc4ccc(C(=O)NCC(F)(F)F)cn4)nn23)no1` [Compound 15, N-(2,2,2-trifluoroethyl)-6-((3-(5-methoxymethylisoxazol-3-yl)-[1,2,4]triazolo[3,4-a]phthalazin-6-oxy)methylene)nicotinamide], the solubility (kinetic) at 24 h in data set [1] amounted to 0.77 µg/mL (≈ 1.5 µM). The same molecule came in with a solubility (thermodynamic) at 24 h in data set [2] of 0.84 µg/mL (≈ 1.64 µM). Molecule `COCc1cc(-c2nnc3c4ccccc4c(OCc4ccc(C(=O)NCC5COC5)cn4)nn23)no1` [Compound 18] had a kinetic solubility at 24 h in data set [1] of 10.8 µg/mL (≈ 21.4 µM). Further, the Emax at 0.1 µM at α5-GABAA receptor was determined as 115%. With `COCc1cc(-c2nnc3c4ccccc4c(OCc4ccc(C(=O)NCC5(C)COC5)cn4)nn23)no1` [Compound 20, N-((3-methyl(oxetanyl)-methyl)-6-{3-[5(methoxymethyl)isoxazol-3-yl]-[1,2,4]triazole[3,4-a]phthalazin-6-oxy)methylene}nicotinamide], the solubility (kinetic) at 24 h in data set [1] is 10.1 µg/mL (≈ 19.7 µM). Besides, at α5-GABAA receptor, the Emax at 0.1 µM was found to be 118%. Molecule `COCc1cc(-c2nnc3c4ccccc4c(OCc4ccc(C(=O)NC5CCC5)cn4)nn23)no1` [Compound 23] displayed a solubility (kinetic) at 24 h in data set [1] of 9.11 µg/mL (≈ 18.8 µM). Besides, at α5-GABAA receptor, the Emax at 0.1 µM was 73.7%. For the molecule `COCc1cc(-c2nnc3c4ccccc4c(OCc4ccc(C(=O)NCC(F)F)cn4)nn23)no1` [Compound 24], in data set [1], the kinetic solubility at 24 h stood at 1.39 µg/mL (≈ 2.81 µM). In data set [2], the thermodynamic solubility at 24 h is 0.74 µg/mL (≈ 1.49 µM). `COCc1cc(-c2nnc3c4ccccc4c(OCc4ccc(C(=O)NCCC#N)cn4)nn23)no1` [Compound 28, N-(2-cyano-ethyl)-6-[3-(5-methoxymethyl-isoxazol-3-yl)-[1,2,4]triazolo[3,4-a]phthalazin-6-yloxymethyl]-nicotinamide] yielded a solubility (kinetic) at 24 h in data set [1] of 3.68 µg/mL (≈ 7.6 µM). On α5-GABAA receptor, the Emax at 0.1 µM turned out to be 133%. For `COCc1cc(-c2nnc3c4ccccc4c(OCc4ccc(C(=O)NC(COC)COC)cn4)nn23)no1` [Compound 30], in that order: 6.85 µg/mL (≈ 12.8 µM) and 85.2%. Turning to `COCc1cc(-c2nnc3c4ccccc4c(OCc4ccc(C(=O)NC56CC(C5)C6)cn4)nn23)no1` [Compound 31], the solubility (kinetic) at 24 h in data set [1] was 4.19 µg/mL (≈ 8.42 µM). Besides, on α5-GABAA receptor, the Emax at 0.1 µM turned out to be 95.1%. Molecule `COCc1cc(-c2nnc3c4ccccc4c(OCc4ccc(C(=O)NC5CN(C(C)=O)C5)cn4)nn23)no1` [Compound 32] showed a solubility (kinetic) at 24 h in data set [1] of 29.7 µg/mL (≈ 56.3 µM). Moreover, the Emax at 0.1 µM on α5-GABAA receptor stood at 89.1%. For `COCc1cc(-c2nnc3c4ccccc4c(OCc4ccc(C(=O)N5CC6(COC6)C5)cn4)nn23)no1` [Compound 39], in that order: 48.5 µg/mL (≈ 94.3 µM) and 90.2%. In the case of `COCc1cc(-c2nnc3c4ccccc4c(OCc4ccc(C(=O)N(C)CC5CC5)cn4)nn23)no1` [Compound 40], the solubility (kinetic) at 24 h in data set [1] came to 31.9 µg/mL (≈ 63.9 µM). Also, the Emax at 0.1 µM on α5-GABAA receptor was found to be 78.3%. In the case of `COCc1cc(-c2nnc3c4ccccc4c(OCc4ccc(C(=O)N5C[C@@H]6C[C@H]5CO6)cn4)nn23)no1` [Compound 43], the kinetic solubility at 24 h in data set [1] is 100 µg/mL (≈ 195 µM). In addition, the Emax at 0.1 µM on α5-GABAA receptor stood at 86.9%. For `COCc1cc(-c2nnc3c4ccccc4c(OCc4ccc(C(=O)N5CCC(O)CC5)cn4)nn23)no1` [Compound 45], in that order: 6.93 µg/mL (≈ 13.4 µM) and 88.4%. Take `COCc1cc(-c2nnc3c4ccccc4c(OCc4ccc(C(=O)N5CCOCC5C)cn4)nn23)no1` (stereo not shown) [Compound 47, (6-(((3-(5-(methoxymethyl)isoxazol-3-yl)-[1,2,4]triazolo[3,4-a]phthalazin-6-yl)oxy)methyl)pyridin-3-yl)(3-methylmorpholino)methanone]: in data set [1], the solubility (kinetic) at 24 h turned out to be 97.8 µg/mL (≈ 190 µM). For the same molecule, the Emax at 0.1 µM at α5-GABAA receptor was 72.5%. `COCc1cc(-c2nnc3c4ccccc4c(OCc4ccc(C(=O)N5CCCC5)cn4)nn23)no1` [Compound 48] returned a kinetic solubility at 24 h in data set [1] of 31.7 µg/mL (≈ 65.3 µM). Moreover, the Emax at 0.1 µM on α5-GABAA receptor stood at 78.7%. For `COCc1cc(-c2nnc3c4ccccc4c(OCc4ccc(C(=O)N5CCCCC5)cn4)nn23)no1` [Compound 49, (6-(((3-(5-(methoxymethyl)isoxazol-3-yl)-[1,2,4]triazolo[3,4-a]phthalazin-6-yl)oxy)methyl)pyridin-3-yl)(piperidin-1-yl)methanone], the Emax at 0.1 µM on α5-GABAA receptor stood at 75.2%. In data set [1], `COCc1cc(-c2nnc3c4ccccc4c(OCc4ccc(C(=O)N5CCOC(C)C5)cn4)nn23)no1` (stereo not shown) [Compound 54] yielded a solubility (kinetic) at 24 h of 97.9 µg/mL (≈ 190 µM). Further, on α5-GABAA receptor, the maximal effect (Emax) at 0.1 µM stood at 77.5%. Take `COCc1cc(-c2nnc3c4ccccc4c(OCc4ccc(C(=O)N5CCC6(CC5)COC6)cn4)nn23)no1` [Compound 56, {6-[3-(5-methoxymethyl-isoxazol-3-yl)-[1,2,4]triazolo[3,4-a]phthalazin-6-yloxymethyl]-pyridin-3-yl}-(2-oxa-7-aza-spiro[3.5]non-7-yl)-methanone]: in data set [1], the kinetic solubility at 24 h worked out at 12.5 µg/mL (≈ 23.1 µM). On α5-GABAA receptor, the Emax at 0.1 µM is 111%.
